Tests used:
[1] = test system: lipid peroxidation of microsome in rat liver; experiment: Inhibitory action against lipid peroxidation of microsome in rat liver (TBA reactive substances, absorption at 535 nm); type: biochemical
Description: 10 μl of microsome fraction (protein concentration; 30-50 mg/ ml) prepared from rat liver and 10 μl of a solution of a compound to be tested in ethanol are added to 0.5 ml of 0.1 M Tris hydrochloride buffer (pH7.5) containing 14 mM MgCl2, which is mixed and preincubated at 37° C. for 5 minutes. Then, 10 μl of 0.2M adenosine diphosphate, 10 μl of 12 mM FeSO4, 40 μl of NADPH reproduced system and distilled water are added to make 1 m1, mixed and reacted at 37° C. for 10 minutes.

Row | melting point | Inhibiting Concentration (IC50 μg/ml) ([1]; Example 7, rat liver microsome fraction, ADP/FeSO4/NADPH system, 37° C. for 10 minutes) | Inhibiting Concentration (IC50 μg/ml) ([1]; Example 8, method of Example 7, deamino form compared with synthetic (1″S, 3″S) Martefragin A) | Molecule
1 | 138.5 to 139.5 °C | – | – | CC[C@H](C)CCc1nc(COOCc2ccccc2)c(-c2c[nH]c3ccccc23)o1 [compound 55]
2 | – | 1.07 µg/mL | 1.35 µg/mL | (1″S, 3″S) Martefragin A [(1″S, 3″S)-19]

— patent US6348484B1, “Stereoisomeric indole compounds, process for the preparation of the same, and use thereof” (Lead Chemical Co., Ltd., priority 1997, dated 2002)
